Results on 18 molecules are retold here after US8614201B2 (Janssen Pharmaceutica NV, priority 2009, dated 2013).

The structures appear in SMILES notation.

For this assay, the target named is Human TRPA1 (Homo sapiens, UniProt O75762). Kind of assay: Alternative TRPA1 Ca2+ fluorometry assay (hTRPA1/TREx-HEK293 cells, Fluo-4, FDSS 6000). The format is cell-based. As to conditions: Fluo-4-AM, agonist 6,11-dihydro-5H-dibenzo[b,e]azepine-10-carboxylic acid methyl ester 25 nM, procedure used for Examples 184, 190 to 192, 194 to 316. On the set-up: expressed in transfected cells. The procedure, abridged: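 Tetracycline-induced (50 ng/ml, 24 h) hTRPA1/TREx-HEK293 cells were loaded with Fluo-4-AM and probenecid. Compound (1% DMSO final) was added after a 12 s baseline and the Ca2+ signal followed for 14 min, then 25 nM TRPA1 agonist dibenzazepine carboxylic acid methyl ester was applied. Signal is Em540 (ex 488 nm) relative to the first baseline reading.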
Sequence of Human TRPA1 (O75762 whole entry): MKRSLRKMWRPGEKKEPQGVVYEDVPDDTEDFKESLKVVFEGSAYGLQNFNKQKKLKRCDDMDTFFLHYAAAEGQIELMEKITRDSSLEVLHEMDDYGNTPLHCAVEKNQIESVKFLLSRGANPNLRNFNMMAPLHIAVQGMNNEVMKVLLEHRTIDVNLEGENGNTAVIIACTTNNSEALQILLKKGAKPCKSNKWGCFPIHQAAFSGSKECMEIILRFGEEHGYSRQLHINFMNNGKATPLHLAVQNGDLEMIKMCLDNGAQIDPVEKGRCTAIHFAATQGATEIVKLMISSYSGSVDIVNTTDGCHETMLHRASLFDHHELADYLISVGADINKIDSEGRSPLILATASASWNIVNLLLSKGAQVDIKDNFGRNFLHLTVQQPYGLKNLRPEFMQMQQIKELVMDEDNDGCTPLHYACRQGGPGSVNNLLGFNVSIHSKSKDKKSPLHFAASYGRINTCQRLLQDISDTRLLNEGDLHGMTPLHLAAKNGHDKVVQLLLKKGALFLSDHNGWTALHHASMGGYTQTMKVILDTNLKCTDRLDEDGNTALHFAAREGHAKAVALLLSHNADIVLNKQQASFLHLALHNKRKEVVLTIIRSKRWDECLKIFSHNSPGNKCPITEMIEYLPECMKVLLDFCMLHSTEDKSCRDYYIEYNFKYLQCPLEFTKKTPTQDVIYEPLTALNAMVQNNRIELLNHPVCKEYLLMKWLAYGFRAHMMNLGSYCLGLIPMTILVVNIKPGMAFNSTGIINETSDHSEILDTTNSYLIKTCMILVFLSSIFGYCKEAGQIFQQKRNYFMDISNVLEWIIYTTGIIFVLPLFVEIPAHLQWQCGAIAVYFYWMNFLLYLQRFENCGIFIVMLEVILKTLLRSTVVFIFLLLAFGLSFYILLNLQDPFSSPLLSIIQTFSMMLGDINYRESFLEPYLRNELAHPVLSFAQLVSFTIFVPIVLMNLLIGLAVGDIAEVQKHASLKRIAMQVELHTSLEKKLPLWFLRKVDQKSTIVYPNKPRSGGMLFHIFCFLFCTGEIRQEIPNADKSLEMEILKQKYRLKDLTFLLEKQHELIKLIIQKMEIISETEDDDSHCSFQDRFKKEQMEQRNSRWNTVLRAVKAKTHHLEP
A word on the IC50: it is the concentration that inhibits the measured activity by half. In the case of `CCOC(=O)C1CCN(c2nc(CNC(=O)[C@@H]3CCCN3S(=O)(=O)c3ccc(F)cc3)cc(-c3ccc4c(c3)OCO4)n2)CC1` [Example 205, 1-[4-Benzo[1,3]dioxol-5-yl-6-({[1-(4-fluoro-benzenesulfonyl)-pyrrolidine-2S-carbonyl]-amino}-methyl)-pyrimidin-2-yl]-piperidine-4-carboxylic acid ethyl ester], the IC50 is about 1.78 µM.
Then `C#CCNc1nc(CNC(=O)[C@@H]2CCCN2S(=O)(=O)c2ccc(F)cc2)cc(-c2ccc(Br)cc2)n1` [Example 209, 1-(4-Fluoro-benzenesulfonyl)-pyrrolidine-2S-carboxylic acid [6-(4-bromo-phenyl)-2-prop-2-ynylamino-pyrimidin-4-ylmethyl]-amide], with 1 µM; and `O=C(NCc1cc(-c2cccc(F)c2)nc(N2CCN(c3ccccc3F)CC2)n1)[C@@H]1CCCN1S(=O)(=O)c1ccc(F)cc1` [Example 246, 1-(4-Fluoro-benzenesulfonyl)-pyrrolidine-2S-carboxylic acid {6-(3-fluoro-phenyl)-2-[4-(2-fluoro-phenyl)-piperazin-1-yl]-pyrimidin-4-ylmethyl}-amide], with 2 µM.
With `CCCCNc1nc(CNC(=O)[C@@H]2CCCN2S(=O)(=O)c2ccc(F)cc2)cc(-c2ccc(C(F)(F)F)cc2)n1` [Example 310, 1-(4-Fluoro-benzenesulfonyl)-pyrrolidine-2S-carboxylic acid [2-butylamino-6-(4-trifluoromethyl-phenyl)-pyrimidin-4-ylmethyl]-amide] the figure was 0.407 µM; with `COc1ccc(Nc2nc(CNC(=O)[C@@H]3CCCN3S(=O)(=O)c3ccc(F)cc3)cc(-c3ccc4c(c3)OCO4)n2)cc1` [Example 287, 1-(4-Fluoro-benzenesulfonyl)-pyrrolidine-2S-carboxylic acid [6-benzo[1,3]dioxol-5-yl-2-(4-methoxy-phenylamino)-pyrimidin-4-ylmethyl]-amide], 3.72 µM; with `O=C(NCc1cc(-c2ccc3c(c2)OCO3)nc(N2CCN(Cc3ccc4c(c3)OCO4)CC2)n1)[C@@H]1CCCN1S(=O)(=O)c1ccc(F)cc1` [Example 305, 1-(4-Fluoro-benzenesulfonyl)-pyrrolidine-2S-carboxylic acid [6-benzo[1,3]dioxol-5-yl-2-(4-benzo[1,3]dioxol-5-ylmethyl-piperazin-1-yl)-pyrimidin-4-ylmethyl]-amide], about 5.89 µM.
Then `O=C(NCc1cc(-c2ccc(C(F)(F)F)cc2)nc(N2CCN(c3ccccc3F)CC2)n1)[C@@H]1CCCN1S(=O)(=O)c1ccc(Cl)s1` [Example 263, 1-(5-Chloro-thiophene-2-sulfonyl)-pyrrolidine-2S-carboxylic acid [2-[4-(2-fluoro-phenyl)-piperazin-1-yl]-6-(4-trifluoromethyl-phenyl)-pyrimidin-4-ylmethyl]-amide], with 0.191 µM; and `O=C(NCc1cc(-c2ccc(C(F)(F)F)cc2)nc(N[C@@H](CO)Cc2ccccc2)n1)[C@@H]1CCCN1S(=O)(=O)c1ccc(F)cc1` [Example 191, 1-(4-Fluoro-benzenesulfonyl)-pyrrolidine-2S-carboxylic acid [2-(1S-hydroxymethyl-2-phenyl-ethylamino)-6-(4-trifluoromethyl-phenyl)-pyrimidin-4-ylmethyl]-amide], with 2.14 µM.
In turn, `COc1cccc(OC)c1-c1cc(CNC(=O)[C@@H]2CCCN2S(=O)(=O)c2ccc(F)cc2)nc(N2CCN(c3ccccc3F)CC2)n1` [Example 228, 1-(4-Fluoro-benzenesulfonyl)-pyrrolidine-2S-carboxylic acid {6-(2,6-dimethoxy-phenyl)-2-[4-(2-fluoro-phenyl)-piperazin-1-yl]-pyrimidin-4-ylmethyl}-amide] showed an IC50 of 2.29 µM.
Then `NS(=O)(=O)c1ccc(CCNc2nc(CNC(=O)[C@@H]3CCCN3S(=O)(=O)c3ccc(F)cc3)cc(-c3ccc(Br)cc3)n2)cc1` [Example 301, 1-(4-Fluoro-benzenesulfonyl)-pyrrolidine-2S-carboxylic acid {6-(4-bromo-phenyl)-2-[2-(4-sulfamoyl-phenyl)-ethylamino]-pyrimidin-4-ylmethyl}-amide], with 5.62 µM; and `O=C(NCc1cc(-c2ccc(C(F)(F)F)cc2)nc(NCCC2C=Nc3ccccc32)n1)[C@@H]1CCCN1S(=O)(=O)c1ccc(F)cc1` (stereo partly drawn) [Example 299, 1-(4-Fluoro-benzenesulfonyl)-pyrrolidine-2S-carboxylic acid [2-[2-(3H-indol-3-yl)-ethylamino]-6-(4-trifluoromethyl-phenyl)-pyrimidin-4-ylmethyl]-amide], with about 1.59 µM; and `CC1CCN(c2nc(CNC(=O)[C@@H]3CCCN3S(=O)(=O)c3ccc(F)cc3)cc(-c3ccc(Br)cc3)n2)CC1` [Example 296, 1-(4-Fluoro-benzenesulfonyl)-pyrrolidine-2S-carboxylic acid [6-(4-bromo-phenyl)-2-(4-methyl-piperidin-1-yl)-pyrimidin-4-ylmethyl]-amide], with 4.47 µM.
`O=C(NCc1cc(-c2ccc(C(F)(F)F)cc2)nc(N2CCN(c3ccccc3F)CC2)n1)[C@@H]1CCCN1S(=O)(=O)c1cccs1` [Example 264, 1-(Thiophene-2-sulfonyl)-pyrrolidine-2S-carboxylic acid [2-[4-(2-fluoro-phenyl)-piperazin-1-yl]-6-(4-trifluoromethyl-phenyl)-pyrimidin-4-ylmethyl]-amide] displayed a half-inhibitory concentration (IC50) of about 0.933 µM.
Then `Cc1ccc(C)c(S(=O)(=O)N2CCC[C@H]2C(=O)NCc2cc(-c3ccc(C(F)(F)F)cc3)nc(N3CCN(c4ccccc4F)CC3)n2)c1` [Example 266, 1-(2,5-Dimethyl-benzenesulfonyl)-pyrrolidine-2S-carboxylic acid [2-[4-(2-fluoro-phenyl)-piperazin-1-yl]-6-(4-trifluoromethyl-phenyl)-pyrimidin-4-ylmethyl]-amide], with over 10 µM; and `COc1ccc(CCNc2nc(CNC(=O)[C@@H]3CCCN3S(=O)(=O)c3ccc(F)cc3)cc(-c3ccc(C(F)(F)F)cc3)n2)cc1OC` [Example 197, 1-(4-Fluoro-benzenesulfonyl)-pyrrolidine-2S-carboxylic acid [2-[2-(3,4-dimethoxy-phenyl)-ethylamino]-6-(4-trifluoromethyl-phenyl)-pyrimidin-4-ylmethyl]-amide], with about 1.15 µM; and `O=C(NCc1cc(-c2ccc(C(F)(F)F)cc2)nc(N2CCN(c3ccccc3F)CC2)n1)[C@@H]1CCCN1S(=O)(=O)c1ccc(F)c(F)c1` [Example 258, 1-(3,4-Difluoro-benzenesulfonyl)-pyrrolidine-2S-carboxylic acid [2-[4-(2-fluoro-phenyl)-piperazin-1-yl]-6-(4-trifluoromethyl-phenyl)-pyrimidin-4-ylmethyl]-amide], with 0.324 µM.
Then `O=C(NCc1cc(-c2ccc(Br)cc2)nc(N2CCc3ccccc3C2)n1)[C@@H]1CCCN1S(=O)(=O)c1ccc(F)cc1` [Example 222, 1-(4-Fluoro-benzenesulfonyl)-pyrrolidine-2S-carboxylic acid [6-(4-bromo-phenyl)-2-(3,4-dihydro-1H-isoquinolin-2-yl)-pyrimidin-4-ylmethyl]-amide], with 9.12 µM; and `O=C(NCc1cc(-c2ccc(C(F)(F)F)cc2)nc(C(F)(F)F)n1)[C@@H]1CCCN1S(=O)(=O)c1ccc(F)cc1` [Example 184, 1-(4-Fluoro-benzenesulfonyl)-pyrrolidine-2S-carboxylic acid [2-trifluoromethyl-6-(4-trifluoromethyl-phenyl)-pyrimidin-4-ylmethyl]-amide], with about 0.033 µM.
